For one assay, the target named is T1, Human A2BR (Homo sapiens, UniProt P29275).
T1 sequence (P29275 1-332): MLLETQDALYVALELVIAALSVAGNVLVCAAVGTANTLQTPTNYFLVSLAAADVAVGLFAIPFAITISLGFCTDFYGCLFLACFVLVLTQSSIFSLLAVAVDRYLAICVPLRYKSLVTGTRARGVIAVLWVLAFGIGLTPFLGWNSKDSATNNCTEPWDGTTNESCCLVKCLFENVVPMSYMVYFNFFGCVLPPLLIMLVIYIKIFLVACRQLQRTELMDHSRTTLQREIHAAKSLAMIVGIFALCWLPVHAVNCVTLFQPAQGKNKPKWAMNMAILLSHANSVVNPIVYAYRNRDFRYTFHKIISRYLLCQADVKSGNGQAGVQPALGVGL
Put plainly: Human 2B Adenosine Receptor CHO-K1 cAMP functional assay. The assay is classed as cell-based. The settings on record: cAMP antagonist functional assay, CHO-K1 cells stably expressing Human A2BR, NECA stimulation; read-out: Potency: A2BR KB. The method, then:
Measurement of the Adenosine Receptor Activity of Compounds Using a Human 2B Adenosine Receptor CHO-K1 cAMP Functional Assay
CHO-K1 cells stably expressing Human Adenosine 2B Receptor (A2BR: Cat. No. M000329, GenScript) were purchased from GenScript Inc., Piscataway, N.J. 08854, USA.
The cAMP antagonist functional assay (Perkin Elmer) was performed on CHO-K1 cells stably expressing Human A2BR. 1×10^6 cells were seeded in T75 flasks and cultured at 37° C. and 5% CO2 overnight. 2,000-4,000 cells/well of stably-expressed A2bR CHO-K1 cells were then seeded to a white 384-well Opti plate followed by compound 1 incubation at various concentrations (ranging from 1 μM to 0 μM) at 37° C. for 1 hour.
(§1) A 1:2 serial dilution of NECA (Sigma Aldrich) from 1 μM to 0 μM was added to the cell stimulation mixture and incubated for 30 min at 37° C. After 30 min incubation, 5 μL of Ulight-anti-cAMP (1:150 dilution with conjugate and lysis buffer provided by Perkin Elmer) and 5 μL of Eu-cAMP tracer (1:50 dilution with conjugate and lysis buffer provided by Perkin Elmer) was added the cells and incubated for an hour. FRET signal was detected with an Envision multilabel plate reader (Perkin Elmer) loaded with 615 nm […] filters and 665 nm emission filters.
(§2) Data analysis was performed using on GraphPad Prism (version 7.02) to determine the KB of the test compounds.

For the next assay, the target named is T2, Human A2AR (Homo sapiens, UniProt P29274).
T2 construct: expressed in transfected cells; host or cells: CHO-T-REx cells (inducible expression)
Put plainly: human 2A Adenosine Receptor (A2aR) CHO-TREx cAMP functional assay. The settings on record: cAMP antagonist functional assay, CHO-T-REx cells expressing Human A2AR, NECA stimulation; read-out: Potency: A2AR KB. Type of assay: cell-based. The method, then:
Measurement of the Adenosine Receptor Activity of Compounds using a human 2A Adenosine Receptor (A2aR) CHO-TREx cAMP Functional Assay
The cAMP antagonist functional assay (Perkin Elmer) was performed on CHO-T-REx cells induced to express Human A2AR. Cells were seeded to a white 384-well Opti plate at a density of 1,000 to 2,500 cells per well followed by incubation with various concentrations of compound (ranging from 1 μM to 0 μM) at 37° C. for 1 hour.
as §1, §2

T2 sequence (P29274 whole entry): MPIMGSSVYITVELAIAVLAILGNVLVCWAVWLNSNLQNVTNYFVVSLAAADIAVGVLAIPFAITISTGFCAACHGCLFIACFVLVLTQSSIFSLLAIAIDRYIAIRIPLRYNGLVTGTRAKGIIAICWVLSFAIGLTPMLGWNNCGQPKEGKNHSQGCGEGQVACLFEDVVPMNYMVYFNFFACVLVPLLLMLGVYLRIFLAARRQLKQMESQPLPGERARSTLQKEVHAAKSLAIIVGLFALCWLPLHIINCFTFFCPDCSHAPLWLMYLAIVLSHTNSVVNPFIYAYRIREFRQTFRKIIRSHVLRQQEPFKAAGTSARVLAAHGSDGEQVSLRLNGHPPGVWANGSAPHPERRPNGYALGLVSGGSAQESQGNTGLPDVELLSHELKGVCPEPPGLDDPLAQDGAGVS

What is called Kb is the affinity of an antagonist, worked out from how it opposes an agonist. On to `COc1cccc2c(-c3cn(Cc4cccc(-c5cccc(C(=O)O)c5)n4)nn3)nc(N)nc12`, for which the antagonist equilibrium constant (Kb) at Human A2BR and at Human A2AR was < 100 nM throughout.
As to `CC(C)(CO)c1cccc(Cn2cc(-c3nc(N)nc4c(F)cccc34)nn2)n1`, the Kb on Human A2BR and on Human A2AR was < 100 nM each time.
As for `COc1cccc2c(-c3cn(Cc4cccc(C(C)(C)CO)n4)nn3)nc(N)nc12`, the Kb at Human A2BR and on Human A2AR was < 100 nM in each case.
As to `COc1cccc2c(-c3cn(Cc4cccc(C(C)(C)O)n4)nn3)nc(NC(C)C)nc12`, the antagonist dissociation constant (Kb) at Human A2BR and on Human A2AR was < 100 nM each time.
Regarding `COc1cccc2c(-c3cnn(Cc4cccc(C5(O)CCC5)n4)c3)nc(N)nc12`, the antagonist equilibrium constant (Kb) on Human A2BR and at Human A2AR was < 100 nM throughout.
Regarding `COc1c(F)ccc2c(-c3cn(Cc4cccc(C(C)(C)CO)n4)nn3)nc(N)nc12`, the Kb on Human A2BR and at Human A2AR was < 100 nM in each case.
Consider `Nc1nc(-c2cn(Cc3cccc(C4(O)COC4)n3)nn2)c2cccc(F)c2n1`, for which the figures for the antagonist dissociation constant (Kb) at Human A2BR and at Human A2AR were 100 to 1000 nM and < 100 nM, respectively.
As to `CCOc1cccc2c(-c3cn(Cc4cccc(C(C)(C)O)n4)nn3)nc(N)nc12`, the values for the antagonist equilibrium constant (Kb) on Human A2BR and at Human A2AR were 100 to 1000 nM and < 100 nM, respectively.
The matching figures for `CC(C)(O)c1cccc(Cn2cc(-c3nc(N)nc4cc(C#N)ccc34)nn2)n1`: < 100 nM and < 100 nM.
The matching figures for `COc1cccc2c(-c3cn(Cc4cccc(C(C)(O)C(F)(F)F)n4)nn3)nc(N)nc12` (stereo not drawn): < 100 nM and < 100 nM.
The like results for `COc1cc(F)cc2c(-c3cn(Cc4cccc(C(C)(C)O)n4)nn3)nc(N)nc12` were, in that order, < 100 nM and < 100 nM.
As for `COc1cccc2c(-c3cn(Cc4cccc(N5CCC(O)C5)n4)nn3)nc(N)nc12` (stereo not drawn), the Kb on Human A2BR and on Human A2AR was < 100 nM each time.
Consider `COc1cccc2c(-c3cn(Cc4cccc(-c5ccccc5C(=O)O)n4)nn3)nc(N)nc12`, for which the Kb on Human A2BR was 100 to 1000 nM; at Human A2AR it was < 100 nM.
The matching figures for `COc1cccc2c(-c3cn(Cc4cccc(-c5ccc(C(=O)O)cc5)n4)nn3)nc(N)nc12`: < 100 nM and < 100 nM.
The like results for `COc1cccc2c(-c3cn(Cc4cccc(C5(O)CCOCC5)n4)nn3)nc(N)nc12` were, in that order, < 100 nM and < 100 nM.
As for `COc1cccc2c(-c3cn(Cc4cccc(C(C)(C)O)n4)nn3)nc(N[C@H]3CCOC3)nc12`, the antagonist dissociation constant (Kb) at Human A2BR and at Human A2AR was < 100 nM throughout.
For `CC(C)(O)c1cccc(Cn2cc(-c3nc(N)nc4c(F)c(F)ccc34)nn2)n1`, the antagonist dissociation constant (Kb) on Human A2BR and at Human A2AR was < 100 nM throughout.
For the compound `COc1cccc2c(-c3cn(Cc4cccc(C5(O)COC5)n4)nn3)nc(N)nc12`, the antagonist equilibrium constant (Kb) at Human A2BR and at Human A2AR was < 100 nM in each case.
For the compound `COc1cccc2c(-c3cn(Cc4cccc([C@@](C)(O)C(F)(F)F)n4)nn3)nc(N)nc12`, the Kb at Human A2BR and at Human A2AR was < 100 nM each time.
For `COCCOCc1cccc(Cn2cc(-c3nc(N)nc4c(Cl)cccc34)nn2)n1`, the Kb at Human A2BR and at Human A2AR was < 100 nM in each case.
With `COc1ccc2c(-c3cn(Cc4cccc(C(C)(C)O)n4)nn3)nc(N)nc2c1`, the Kb on Human A2BR and on Human A2AR was < 100 nM each time.
With `COc1cccc2c(-c3cn(Cc4cccc(N5CCCC5=O)n4)nn3)nc(N)nc12`, the Kb on Human A2BR and at Human A2AR was < 100 nM each time.
For the compound `COc1cccc2c(-c3cn(Cc4cccc(C(C)(C)O)n4)nn3)nc(NC3CC3)nc12`, the Kb at Human A2BR and at Human A2AR was < 100 nM each time.
On to `COc1c(F)ccc2c(-c3cn(Cc4cccc(C5(O)COC5)n4)nn3)nc(N)nc12`, for which the Kb at Human A2BR and on Human A2AR was < 100 nM throughout.
Consider `CCOC(=O)N1CCC(c2cccc(Cn3cc(-c4nc(N)nc5c(OC)cccc45)nn3)n2)CC1`, for which the antagonist equilibrium constant (Kb) on Human A2BR and on Human A2AR was < 100 nM each time.
Take `COc1cccc2c(-c3cn(Cc4cccc(COC[C@H]5CCCO5)n4)nn3)nc(N)nc12`: the antagonist dissociation constant (Kb) at Human A2BR and on Human A2AR was < 100 nM throughout.
Regarding `COc1cccc2c(-c3cn(Cc4cccc([C@](C)(O)C(F)(F)F)n4)nn3)nc(N)nc12`, the Kb at Human A2BR and at Human A2AR was < 100 nM each time.

Values taken from patent US11045472B2, “Quinazoline-pyridine derivatives for the treatment of cancer-related disorders” (ARCUS BIOSCIENCES, INC., priority 2017, dated 2021).
